Assay results as given in patent publication US7790727B2, “Benzenesulfonanilide compounds suitable for treating disorders that respond to modulation of the serotonin 5-HT6 receptor” (Abbott GmbH & Co. KG, priority 2007, dated 2010).
Where a name gives a salt, the structure may show the parent alone. Read-outs that look alike come from different tables or passages of the source.

Biological target: T1, h-5-HT6 receptor (Homo sapiens, UniProt P50406)
T1 construct: expressed in transfected cells
Assay: 5-HT6 receptor binding assay (displacement of [3H]-LSD)
Protocol: Displacement of radioligands binding to the following cloned human receptors
1. Preparation of Membranes by Ultrasonic Treatment and Differential Centrifugation
Cells from stable clonal cell lines expressing the corresponding receptor (5-HT6, α1-adrenergic, dopamine D2 or histamine H1 receptors) were washed with PBS (w/o Ca^++, Mg^++) and harvested in PBS with 0.02% EDTA. The cells were collected by centrifugation at 500 g for 10 min. at 4° C., washed with PBS and centrifuged (500 g, 10 min. 4° C.). The pellets were stored at −80° C. until use. F or membrane preparation, the thawed cell pellet was resuspended in ice-cold sucrose buffer (0.25 M sucrose, 10 mM Hepes (pH 7.4), 1 mM Phenylmethylsulfonyl fluoride (PMSF) in DMSO, 5 μg/ml Pepstatin-A, 3 mM EDTA, 0.025% Bacitracin) and homogenized with a Branson Sonifier W-250 (Settings: Timer 4; Output Control 3; Duty Cycle constant; 2 to 3 cycles). Cell disruption was checked with the aid of a microscope. Remaining unbroken cells were pelleted at 1.000 g for 10 min. at 4° C. The sucrose buffer supernatant was then centrifuged at 60.000 g for 1 h at 4° C. (Beckman Ultrazentrifuge XL 80). The pellet was resuspended in 30 ml ice-cold Tris buffer (20 mM TRIS (pH 7.4), 5 μg/ml Pepstatin A, 0.1 mM PMSF, 3 mM EDTA) by pipetting through a 10 ml serological pipet and centrifuged for 1 h at 4° C. at 60.000 g. A final resuspension was performed in a small volume of ice-cold Tris buffer (see above) by pressing through a serological pipet followed by ultrasonic treatment with a Branson Sonifier W-250 (Settings: Timer 1; Output Control 3; Duty Cycle constant; 1 cycle). Protein concentration was determined (BCA-Kit; Pierce) and aliquots stored at −80° C. or in liquid nitrogen for long-term storage.
2. Receptor Binding Experiments
All receptor binding experiments were carried out in the corresponding assay buffer in a total volume of 200 μl in the presence of various concentrations of test compound (10^−5 M to 10^−9 M, tenfold serial dilution, duplicate determinations). The assays were terminated by filtration on polyethylenimine (PEI 0.1% or 0.3%) presoaked Packard Unifilter Plates (GF/C or GF/B) with a Tomtec Machill U 96 well-plate harvester. After the plates had been dried for 2 h at 55° C. in a drying chamber scin tillation cocktail (BetaPlate Scint; PerkinElmer) was added. Radioactivity was measured in a Microbeta Trilux two hours after the addition of the scintillation mixture. Data derived from liquid scintillation counting were analysed by iterative non-linear regression analysis with the use of the Statistical Analysis System (SAS): a program similar to “LIGAND” as described by Munson and Rodbard (Analytical Biochemistry 107, 220-239 (1980).
a) 5-HT6 Receptor Binding Assay
HEK293 cells stably expressing the h-5-HT6 receptor (NCBI Reference Sequence XM 001435) were cultured in RPMI1640 medium supplemented with 25 mM HEPES, 10% fetal calf serum and 1-2 mM glutamine. The membrane preparation was performed as described in section 1. […] Non-specific binding was defined with 1 μM methiothepin. The binding reaction was carried out for 3.5 h at room temperature. During the incubation, the plates were shaken on a plate shaker at 100 rpm and terminated by filtration on Packard Unifilter GF/C (0.1% PEI) plates, followed by 2 wash cycles with ice-cold 50 mM Tris-HCl, 5 mM CaCl2.
Data derived from liquid scintillation counting were analyzed by iterative non-linear regression analysis with the use of the Statistical Analysis System (SAS): a program similar to “LIGAND” as described by Munson and Rodbard (Anal. Biochem. 1980, 107, 220-239). Fitting was performed according to formulae described by Feldman (Anal. Biochem. 1972, 48, 317-338). IC50, nH and Ki values were expressed as geometrical mean.

[1] = membranes of HEK293 cells expressing h-5-HT6 receptor, 1 nM [3H]-LSD, read-out: Ki(5HT6)

T1 sequence (P50406 whole entry): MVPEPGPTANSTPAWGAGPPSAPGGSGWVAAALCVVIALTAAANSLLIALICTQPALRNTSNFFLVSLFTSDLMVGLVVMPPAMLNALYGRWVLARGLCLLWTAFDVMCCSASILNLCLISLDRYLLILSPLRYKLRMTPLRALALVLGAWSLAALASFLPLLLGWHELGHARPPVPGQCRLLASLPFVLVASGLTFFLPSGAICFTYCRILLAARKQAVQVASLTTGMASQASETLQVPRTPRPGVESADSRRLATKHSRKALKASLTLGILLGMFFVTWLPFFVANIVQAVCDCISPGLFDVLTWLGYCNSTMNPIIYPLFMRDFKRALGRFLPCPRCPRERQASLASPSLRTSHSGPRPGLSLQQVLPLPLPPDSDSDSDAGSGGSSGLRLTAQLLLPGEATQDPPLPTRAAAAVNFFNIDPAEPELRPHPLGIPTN

| Ki [1] [nM] | Structure (SMILES) | Ki [nM] |
| --- | --- | --- |
| < 10 | COc1ccc(NS(=O)(=O)c2cccc(OC(F)F)c2)cc1N1CCNCC1 [Example 1, 3-Difluoromethoxy-N-(4-methoxy-3-piperazin-1-yl-phenyl)-benzenesulfonamide Hydrochloride] |  |
| < 20 | COc1ccc(N(C)S(=O)(=O)c2cccc(OC(F)F)c2)cc1N1CCNCC1 [Example 2, 3-Difluoromethoxy-N-(4-methoxy-3-piperazin-1-yl-phenyl)-N-methyl-benzene-sulfonamide Hydrochloride] |  |
| < 20 | O=S(=O)(Nc1ccc(OC(F)(F)F)c(N2CCNCC2)c1)c1cccc(OC(F)F)c1 [Example 6, 3-Difluoromethoxy-N-(3-piperazin-1-yl-4-trifluoromethoxy-phenyl)-benzenesulfonamide] |  |
| < 50 | O=S(=O)(Nc1ccc(OC(F)F)c(N2CCNCC2)c1)c1ccccc1OC(F)F [Example 7, 2-Difluoromethoxy-N-(3-piperazin-1-yl-4-difluoromethoxy-phenyl)-benzenesulfonamide Trifluoroacetate] |  |
| < 10 | COc1ccc(NS(=O)(=O)c2cc(OC(F)F)ccc2OC)cc1N1CCNCC1 [Example 8, 5-Difluoromethoxy-2-methoxy-N-(4-methoxy-3-piperazin-1-yl-phenyl)-benzene-sulfonamide Hydrochloride] |  |
| < 10 | O=S(=O)(Nc1ccc(OCCF)c(N2CCNCC2)c1)c1cccc(OC(F)F)c1 [Example 11, 3-Difluoromethoxy-N-[4-(2-fluoroethoxy)-3-piperazin-1-yl-phenyl]-benzenesulfonamide Hydrochloride] |  |
| < 10 | COc1ccc(S(=O)(=O)Nc2ccc(OC)c(N3CCNCC3)c2)cc1OC(F)F [Example 13, 3-Difluoromethoxy-4-methoxy-N-(4-methoxy-3-piperazin-1-yl-phenyl)-benzenesulfonamide Hydrochloride] |  |
| < 10 | COc1ccc(NS(=O)(=O)c2ccccc2OC(F)F)cc1N1CCNCC1 [Example 14, 2-Difluoromethoxy-N-(4-methoxy-3-piperazin-1-yl-phenyl)-benzenesulfonamide Trifluoroacetate] |  |
| < 50 | COc1ccc(NS(=O)(=O)c2ccc(OC(F)F)cc2)cc1N1CCNCC1 [Example 15, 4-Difluoromethoxy-N-(4-methoxy-3-piperazin-1-yl-phenyl)-benzenesulfonamide Hydrochloride] |  |
| < 10 | COc1ccc(NS(=O)(=O)c2cccc(OC(F)F)c2)cc1N1CCN(C)CC1 [Example 25, 3-Difluoromethoxy-N-[4-methoxy-3-(4-methyl-piperazin-1-yl)-phenyl]-benzenesulfonamide] |  |

Second part, the compound before the results:

| Structure (SMILES) | Ki [1] [nM] | Ki [nM] |
| --- | --- | --- |
| COc1ccc(NS(=O)(=O)c2ccc(OC(F)F)cc2)cc1N1CCN(C)CC1 [Example 3, 4-Difluoromethoxy-N-[4-methoxy-3-(4-methyl-piperazin-1-yl)-phenyl]-benzenesulfonamide] | < 20 |  |
| COc1ccc(NS(=O)(=O)c2cccc3c2OC(F)(F)O3)cc1N1CCNCC1 [Example 4, 2,2-Difluoro-benzo[1,3]dioxole-4-sulfonic Acid (4-methoxy-3-piperazin-1-yl-phenyl)-amide Hydrochloride] | < 10 |  |
| COc1c(F)cc(NS(=O)(=O)c2cccc(OC(F)F)c2)cc1N1CCNCC1 [Example 9, 3-Difluoromethoxy-N-(3-fluoro-4-methoxy-5-piperazin-1-yl-phenyl)-benzenesulfonamide Hydrochloride] | < 50 |  |
| COc1c(F)cc(NS(=O)(=O)c2cccc3c2OC(F)(F)O3)cc1N1CCNCC1 [Example 10, 2,2-Difluoro-benzo[1,3]dioxole-4-sulfonic acid (3-fluoro-4-methoxy-5-piperazin-1-yl-phenyl)-amide Hydrochloride] | < 10 |  |
| O=S(=O)(Nc1ccc(OCCF)c(N2CCNCC2)c1)c1cccc2c1OC(F)(F)O2 [Example 12, 2,2-Difluoro-benzo[1,3]dioxole-4-sulfonic acid (4-(2-fluoroethoxy)-5-piperazin-1-yl-phenyl)-amide Hydrochloride] | < 50 |  |
| CCN(c1ccc(OC)c(N2CCN(C)CC2)c1)S(=O)(=O)c1cccc(OC(F)F)c1 [Example 16, 3-Difluoromethoxy-N-ethyl-N-[4-methoxy-3-(4-methyl-piperazin-1-yl)-phenyl]-benzenesulfonamide Hydrochloride] | < 10 |  |
| COc1ccc(N(CCCF)S(=O)(=O)c2cccc(OC(F)F)c2)cc1N1CCNCC1 [Example 17, 3-Difluoromethoxy-N-(3-fluoropropyl)-N-(4-methoxy-3-piperazin-1-yl-phenyl)-benzenesulfonamide Hydrochloride] | < 50 |  |
| CCCN(c1ccc(OC)c(N2CCNCC2)c1)S(=O)(=O)c1cccc(OC(F)F)c1 [Example 18, 3-Difluoromethoxy-N-(4-methoxy-3-piperazin-1-yl-phenyl)-N-propyl-benzene-sulfonamide Hydrochloride] | < 50 |  |
| COc1cc(Cl)c(NS(=O)(=O)c2cccc(OC(F)F)c2)cc1N1CCNCC1 [Example 19, N-(2-Chloro-4-methoxy-5-piperazin-1-yl-phenyl)-3-difluoromethoxy-benzene-sulfonamide Trifluoroacetate] | < 50 |  |
| CN1CCN(c2cc(NS(=O)(=O)c3cccc(OC(F)F)c3)ccc2OC(F)(F)F)CC1 [Example 20, 3-Difluoromethoxy-N-[3-(4-methyl-piperazin-1-yl)-4-trifluoromethoxy-phenyl]-benzenesulfonamide Hydrochloride] | < 10 |  |
| COc1ccc(N(C)S(=O)(=O)c2cccc3c2OC(F)(F)O3)cc1N1CCN(C)CC1 [Example 21, 2,2-Difluoro-benzo[1,3]dioxole-4-sulfonic acid [4-methoxy-3-(4-methyl-piperazin-1-yl)-phenyl]-methyl-amide Hydrochloride] | < 50 |  |
| CCN(c1ccc(OC)c(N2CCNCC2)c1)S(=O)(=O)c1cccc2c1OC(F)(F)O2 [Example 22, 2,2-Difluoro-benzo[1,3]dioxole-4-sulfonic acid ethyl-(4-methoxy-3-piperazin-1-yl-phenyl)-amide Hydrochloride] | < 50 |  |
| COc1ccc(N(C)S(=O)(=O)c2cccc3c2OC(F)(F)O3)cc1N1CCNCC1 [Example 23, 2,2-Difluoro-benzo[1,3]dioxole-4-sulfonic acid methyl-(4-methoxy-3-piperazin-1-yl-phenyl)-amide Hydrochloride] | < 50 |  |
| COc1ccc(N(C)S(=O)(=O)c2cccc(OC(F)F)c2)cc1N1CCN(C)CC1 [Example 24, 3-Difluoromethoxy-N-[4-methoxy-3-(4-methyl-piperazin-1-yl)-phenyl]-N-methyl-benzenesulfonamide Hydrochloride] | < 10 |  |
| O=S(=O)(Nc1ccc(F)c(N2CCNCC2)c1)c1cccc(OC(F)F)c1 [Example 26, 3-Difluoromethoxy-N-(4-fluoro-3-piperazin-1-yl-phenyl)-benzenesulfonamide Hydrochloride] |  | < 50 |
| O=S(=O)(Nc1ccc(F)c(N2CCNCC2)c1)c1cccc2c1OC(F)(F)O2 [Example 27, 2,2-Difluoro-benzo[1,3]dioxole-4-sulfonic acid (4-fluoro-3-piperazin-1-yl-phenyl)-amide Hydrochloride] | < 50 |  |
| O=S(=O)(Nc1cccc(N2CCNCC2)c1)c1cccc(OC(F)F)c1 [Example 28, 3-Difluoromethoxy-N-(3-piperazin-1-yl-phenyl)-benzenesulfonamide Hydrochloride] | < 50 |  |
| O=S(=O)(Nc1cccc(N2CCNCC2)c1)c1cccc2c1OC(F)(F)O2 [Example 29, 2,2-Difluoro-benzo[1,3]dioxole-4-sulfonic acid (3-piperazin-1-yl-phenyl)-amide Hydrochloride] | < 10 |  |
